The values that follow come from EP4755396A1, “TREATMENT OF P53 GENE MUTATION OR DEFECT NEGATIVE CANCER AND TUMOR PATIENTS” (Ascentawits Pharmaceuticals, Ltd., priority 2023, dated 2025).

Like-named read-outs stand apart in the source and are kept apart here. Peptide text beside a SMILES is read from it. * marks the point of attachment. Cbz = O=C(OCc1ccccc1)*

In one experiment the test system is H460 cells. The experiment can be described thus: In vitro cell proliferation inhibition under normoxia (96-well, CTG, 72 hours). It counts as cell-based, human. The conditions noted are these: for inhibition at 0.025 µM / inhibition at 0.05 µM: NCI-H460, H460 cells; for inhibition at 0.025 µM: RITA 0.025 µM; for inhibition at 0.05 µM: RITA 0.05 µM. The procedure:
Overview of the experimental process • 1) H460 cell suspension was added to a 96-well plate at 100 µL per well, with a cell density of 2000 /well. • 2) The cells were cultured overnight in an incubator at 37°C, 5% CO2. • 3) Compound Treatment
Monotherapy: After 24 hours of cell plating, each well was supplied with 99.5 µL of growth medium then added with 0.5µL of test compounds at different concentrations, shaken gently to ensure even mixing, and then placed at 37°C, 5% CO2 in an incubator.
Combination therapy: After 24 hours of cell plating, each well was supplied with 99 µL of growth medium then added with 0.5µL of the combined action compound Nutlin-3, shaken gently to ensure even mixing, and then placed in an incubator for 2 hours. Then each well was added with 0.5µL of test compounds at different concentrations, shaken gently to ensure even mixing, and then placed at 37°C, 5% CO2 in an incubator.
(§1) 4) The cell plate was placed in the incubator for 72 hours.
(§2) 5) The cell plate to be tested was placed at room temperature to equilibrium for 30 minutes, and 100µL of medium was discarded per well.
(§3) 6) 25µL of CTG reagent was added to each well, placed at a fast shaker to shake for 2 minutes, and placed at room temperature away from light for 30 minutes.
(§4) 7) The chemiluminescence signal value was read using a multifunctional microplate reader with a reading time of 1000 ms.
8) IC50 was calculated with Graph Pad Prism 5 software.
(§5) • 1) H460 and HPAF-II cell suspensions were added to a 96-well plate at 100 µL per well, with a cell density of 2000 /well and 20000/well, respectively. • 2) The cells were cultured overnight in an incubator at 37°C, 5% CO2. • 3) Compound Treatment
(§6) Combination therapy: After 24 hours of cell plating, 99 µL of growth medium was supplied to each well. Each well was added with 0.5 µL of Nutlin-3 or RITA, shaken gently to ensure even mixing, and then placed in an incubator for 2 hours. Then each well was added with 0.5µL of test compounds at different concentrations, shaken gently to ensure even mixing, and then placed at 37°C, 5% CO2 in an incubator.
(§7) Monotherapy: After 24 hours of cell plating, 99.5 µL of growth medium was supplied to each well. Then each well was added with 0.5µL of test compounds at different concentrations, shaken gently to ensure even mixing, and then placed at 37°C, 5% CO2 in an incubator.
(§8) 7) The chemiluminescence signal value was read using a multifunctional microplate reader with a reading time of 1000 ms. The corresponding inhibition rate data were calculated.
(§9) • 1) NCI-H460, NCI-H460 P53KO # 1 cell suspensions were added to a 96-well plate at 100 µL per well, with a cell density of 2000 /well. • 2) The cells were cultured overnight in an incubator at 37°C, 5% CO2. • 3) Compound Treatment
(§10) Combination therapy: After 24 hours of cell plating, 99 µL of medium was supplied to each well. Each well was added with 0.5µL of combined action compound, shaken gently to ensure even mixing, and then placed in an incubator for 2 hours. Then each well was added with 0.5µL of test compounds at different concentrations, shaken gently to ensure even mixing, and then placed at 37°C, 5% CO2 in an incubator.
(§11) 8) The ICso (half maximal inhibitory concentration) values were calculated using GraphPad Prism 5 software.

Another experiment deals with H460 P53 KO #1. The experiment can be described thus: In vitro cell proliferation inhibition under normoxia, p53 knockout cells. It counts as cell-based, human. On the procedure: The p53 CRISPR/Cas9 KO plasmid (human) and p53 HDR plasmid (human) were purchased from Santa Cruz Company to construct H460 P53 KO cell lines, namely p53 knockout (KnockOut) H460 cell lines. Three groups of H460 P53 KO cell lines were constructed with numbers of H460 P53 KO # 1, H460 P53 KO # 7, and H460 P53 KO # 12.
After co-incubation for 15 minutes, they were added dropwise to the culture medium and mixed well.
After 48 h, 2 µg/mL puromycin was added for screening.
When the cell colonies grew to a sufficient size, single colonies were picked and cultured.
When the cell number reached a sufficient quantity, samples were collected for WB identification of the colonies.
H460 P53 KO cell lines, i.e. H460 P53 KO # 1, H460 P53 KO # 7, H460 P53 KO # 12 cell lines were used in experiments, respectively.
as §9, §7, §10, §1, §2, §3, §4, §11

In experiment [1] the test system is RAD51 protein in H460 cells. The experiment can be described thus: WB detection of RAD51 protein amount, degradation and half-life. It counts as cell-based. To be noted: 0.1-1 nM AST-3424, 5 µM Nutlin-3, 5 µM MG-132, 24 hours (Figures 14-17). On the procedure:
In the first, the second and the third experiments of the effect of AST-3424 in combination with Nutlin-3 on Ser15-p53, Ser20-p53, Total p53, MDM2 and p21 proteins in H460 cells in example 5, the applicant also performed WB detection of RAD51 protein, with the results shown in Figures 14, 15 and 16.
• 1) H460 cell suspension was added to a 24-well plate, with a cell density of 100000 /well and 995 µL of medium per well. • 2) The cells were cultured overnight in an incubator at 37°C, 5% CO2. • 3) Compound Treatment
Monotherapy: After 24 hours of cell plating, each well was supplied with 5µL of test compounds at different concentrations: 1% DMSO, 0.1nM AST-3424 and 5 µM Nutlin-3, shaken gently to ensure even mixing, and then placed at 37°C, 5% CO2 in an incubator. After continuing culture for 24 hours, the cells were collected.
Combination therapy: After 24 hours of cell plating, • Adding 0.1 nM AST-3424 for pre-treatment for 2 hours, and then adding 5 µM Nutlin-3 for co-treatment for 22 hours; • Adding 1% DMSO and 5 µM MG-132 for co-treatment for 24 hours; • Adding 0.1 nM AST-3424 and 5 µM MG-132 for co-treatment for 24 hours; • Adding 5 µM Nutlin-3 and 5 µM MG-132 for co-treatment for 24 hours; • Adding 0.1 nM AST-3424 for pre-treatment for 2 hour, and then adding 5 µM Nutlin-3 for treatment for 16 hours, and then adding 5µM MG-132 for co-treatment for 6 hours. […]

The subject of the next experiment is HPAF-II cells. The experiment can be described thus: In vitro cell proliferation inhibition (96-well, CTG, 72 hours). The conditions noted are these: Homo sapiens, HPAF-II cells, 72 hours; for inhibition at 2.5 µM: RITA 2.5 µM; for inhibition at 5 µM: RITA 5 µM. It counts as cell-based. On the procedure:
as §5, §6, §7, §1, §2, §3, §8

As a reminder, the IC50 is the concentration at which inhibition is half-maximal. Consider `CN(C)C(=O)c1cccc(Oc2cc3c(cc2[N+](=O)[O-])OCCC3OP(=O)(N2CC2)N2CC2)c1` (centres unmarked) [Compound C], for which the IC50 in the experiment with H460 cells (Homo sapiens, NCI-H460, 72 h, NCI-H460, normoxia, 72 hours, alone or with 3 µM AST-3021 as labelled (Example 13)) worked out at 2.05 nM; in the experiment on H460 P53 KO #1 (Homo sapiens, NCI-H460, 72 h, NCI-H460 P53KO # 1, normoxia, 72 hours, alone or with 3 µM AST-3021 as labelled (Example 13)) it was 36.1 nM. Also, the “Ratio, combination therapy/ monotherapy” value is 305.37 in the experiment on H460 cells (IC50 ratio, NCI-H460, + 3 µM AST-3021 versus alone (Example 13)) and 43.24 in the experiment on H460 P53 KO #1 (IC50 ratio, NCI-H460 P53KO # 1, + 3 µM AST-3021 versus alone (Example 13)). For the same compound, the “Ratio, Compound C/AST-3424” value with H460 cells (IC50 ratio, NCI-H460, monotherapy) stood at 4.77; in the experiment with H460 P53 KO #1 (IC50 ratio, NCI-H460 P53KO # 1, monotherapy), 6.62. In addition, the “Ratio, knockout / wild” value with H460 P53 KO #1 (IC50 ratio, NCI-H460 P53KO # 1 versus NCI-H460, monotherapy (Example 13)) is 17.60.
With `CC(C)C[C@@H](C=O)NC(=O)[C@H](CC(C)C)NC(=O)[C@H](CC(C)C)NC(=O)OCc1ccccc1` [MG-132] (Cbz-Leu-Leu-Leu-aldehyde), the “RAD51 protein amount (WB)” value in experiment [1] was “reversed the downregulation of RAD51 protein”.
As a reminder, the inhibition is the percentage by which the read-out fell short of the control. With `OCc1ccc(-c2ccc(-c3ccc(CO)s3)o2)s1` [RITA], the inhibition at 0.025 µM was 22.3% in the experiment with H460 cells (Homo sapiens, 72 hours, AST 0.5 nM, AST + RITA 0.5+0.025, read-out: Inhibition rate result, experimental group 1) and 22.3% in the experiment with H460 cells (Homo sapiens, 72 hours, AST 1.5 nM, AST + RITA 1.5+0.025, read-out: Inhibition rate result, experimental group 3). Besides, the inhibition at 0.05 µM turned out to be 22.4% in the experiment with H460 cells (Homo sapiens, 72 hours, AST 0.5 nM, AST + RITA 0.5+0.05, read-out: Inhibition rate result, experimental group 2) and 22.4% in the experiment on H460 cells (Homo sapiens, 72 hours, AST 1.5 nM, AST + RITA 1.5+0.05, read-out: Inhibition rate result, experimental group 4). The inhibition at 2.5 µM in the experiment on HPAF-II cells (AST 60 nM, AST + RITA 60+2.5, read-out: Inhibition rate, experimental group 1) turned out to be 2.86%; with HPAF-II cells (AST 200 nM, AST + RITA 200+2.5, read-out: Inhibition rate, experimental group 3) it was 2.86%; with HPAF-II cells (AST 1667 nM, AST + RITA 1667+2.5, read-out: Inhibition rate, experimental group 5), 2.86%; in the experiment with HPAF-II cells (AST 5000 nM, AST + RITA 5000+2.5, read-out: Inhibition rate, experimental group 7) it was 2.86%. For the same compound, the inhibition at 5 µM turned out to be 5.56% in the experiment with HPAF-II cells (AST 60 nM, AST + RITA 60+5, read-out: Inhibition rate, experimental group 2); 5.56% in the experiment with HPAF-II cells (AST 200 nM, AST + RITA 200+5, read-out: Inhibition rate, experimental group 4); 5.56% in the experiment on HPAF-II cells (AST 1667 nM, AST + RITA 1667+5, read-out: Inhibition rate, experimental group 6); 5.56% with HPAF-II cells (AST 5000 nM, AST + RITA 5000+5, read-out: Inhibition rate, experimental group 8).
